Test results: patent US8871753B2, “Macrocyclic compounds and their use as kinase inhibitors” (Incyte Corporation, priority 2008, dated 2014)
Structures can show the parent of a compound that is named as a salt.

Tests used:
Format in all cases: biochemical
[1] = target: T1, human JAK1 (a.a. 837-1142) (Homo sapiens, UniProt P23458); test: In vitro JAK kinase assay (HTRF, phosphorylation of a biotinylated peptide), JAK1; conditions: method AA1 (90 μM ATP) or AA2 (1000 μM ATP), not stated per value; read-out: JAK1 IC50
T1 construct: human JAK1 (a.a. 837-1142); His tag (N); made in house; host or cells: insect cells (baculovirus)
In short: (§1)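 Kinase reactions ran at room temperature for 1 h with ATP matched per isoform (JAK1 90 μM, JAK2 30 μM, JAK3 3 μM). After an EDTA stop, the phosphorylated biotin-peptide was read by HTRF using Eu-Py20 and SA-APC after 40 min binding.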

[2] = target: T2, human JAK2 (a.a. 828-1132) (Homo sapiens, UniProt O60674); test: In vitro JAK kinase assay (HTRF, phosphorylation of a biotinylated peptide), JAK2; conditions: method AA1 (30 μM ATP) or AA2 (1000 μM ATP), not stated per value
T2 construct: JAK2 (a.a. 828-1132); His tag (N); made in house; host or cells: insect cells (baculovirus)
In short: as §1

[3] = target: T3, human JAK3 (a.a. 781-1124) (Homo sapiens, UniProt P52333); test: In vitro JAK kinase assay (HTRF, phosphorylation of a biotinylated peptide), JAK3; conditions: method AA1 (3 μM ATP) or AA2 (1000 μM ATP), not stated per value
T3 construct: JAK3 (a.a. 781-1124); His tag (N); made in house; host or cells: insect cells (baculovirus)
In short: as §1

TYK2 = TYK2 (Homo sapiens, UniProt P29597); test: TYK2 kinase inhibition (Table A1)
[4] = target: T4, Recombinant Human Anaplastic Lymphoma Kinase (Homo sapiens, UniProt Q9UM73); test: ALK HTRF kinase assay; conditions: compound at 500 nM or 1 mM; 90 μM ATP
T4 construct: purchased Invitrogen, Carlsbad, Calif
In short: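 Compounds were incubated with recombinant human ALK and a biotin-tagged peptide substrate. Product was captured with streptavidin-APC and probed with a europium anti-phosphotyrosine antibody, and plates were read for time-resolved fluorescence. Dose-response data were fitted to derive IC50.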

T3 sequence (P52333 781-1124): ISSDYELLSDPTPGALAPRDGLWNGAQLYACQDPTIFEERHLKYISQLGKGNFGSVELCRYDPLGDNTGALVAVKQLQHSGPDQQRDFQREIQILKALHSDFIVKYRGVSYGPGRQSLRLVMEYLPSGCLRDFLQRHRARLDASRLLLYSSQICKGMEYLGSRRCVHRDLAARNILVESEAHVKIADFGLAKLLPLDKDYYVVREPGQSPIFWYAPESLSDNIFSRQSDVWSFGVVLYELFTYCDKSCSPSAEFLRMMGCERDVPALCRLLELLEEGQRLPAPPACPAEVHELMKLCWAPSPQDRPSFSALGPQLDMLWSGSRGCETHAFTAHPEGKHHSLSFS
T2 sequence (O60674 828-1132): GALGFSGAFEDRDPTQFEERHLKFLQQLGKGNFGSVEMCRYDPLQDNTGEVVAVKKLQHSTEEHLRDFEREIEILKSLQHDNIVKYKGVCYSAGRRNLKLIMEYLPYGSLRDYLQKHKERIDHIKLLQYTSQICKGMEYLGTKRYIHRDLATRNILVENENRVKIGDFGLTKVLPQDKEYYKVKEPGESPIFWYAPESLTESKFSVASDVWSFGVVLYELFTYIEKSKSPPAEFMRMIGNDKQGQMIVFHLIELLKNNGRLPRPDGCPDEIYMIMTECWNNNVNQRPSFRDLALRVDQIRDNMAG
T1 sequence (P23458 849-1154): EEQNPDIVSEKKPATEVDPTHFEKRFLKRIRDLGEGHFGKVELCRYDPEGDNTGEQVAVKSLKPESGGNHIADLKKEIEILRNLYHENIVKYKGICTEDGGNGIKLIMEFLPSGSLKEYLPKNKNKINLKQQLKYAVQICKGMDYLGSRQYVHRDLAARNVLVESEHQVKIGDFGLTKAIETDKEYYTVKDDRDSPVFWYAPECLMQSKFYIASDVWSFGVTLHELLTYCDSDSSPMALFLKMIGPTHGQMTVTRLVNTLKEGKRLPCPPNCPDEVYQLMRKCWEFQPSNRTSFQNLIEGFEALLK
T4 sequence (Q9UM73 19-1620): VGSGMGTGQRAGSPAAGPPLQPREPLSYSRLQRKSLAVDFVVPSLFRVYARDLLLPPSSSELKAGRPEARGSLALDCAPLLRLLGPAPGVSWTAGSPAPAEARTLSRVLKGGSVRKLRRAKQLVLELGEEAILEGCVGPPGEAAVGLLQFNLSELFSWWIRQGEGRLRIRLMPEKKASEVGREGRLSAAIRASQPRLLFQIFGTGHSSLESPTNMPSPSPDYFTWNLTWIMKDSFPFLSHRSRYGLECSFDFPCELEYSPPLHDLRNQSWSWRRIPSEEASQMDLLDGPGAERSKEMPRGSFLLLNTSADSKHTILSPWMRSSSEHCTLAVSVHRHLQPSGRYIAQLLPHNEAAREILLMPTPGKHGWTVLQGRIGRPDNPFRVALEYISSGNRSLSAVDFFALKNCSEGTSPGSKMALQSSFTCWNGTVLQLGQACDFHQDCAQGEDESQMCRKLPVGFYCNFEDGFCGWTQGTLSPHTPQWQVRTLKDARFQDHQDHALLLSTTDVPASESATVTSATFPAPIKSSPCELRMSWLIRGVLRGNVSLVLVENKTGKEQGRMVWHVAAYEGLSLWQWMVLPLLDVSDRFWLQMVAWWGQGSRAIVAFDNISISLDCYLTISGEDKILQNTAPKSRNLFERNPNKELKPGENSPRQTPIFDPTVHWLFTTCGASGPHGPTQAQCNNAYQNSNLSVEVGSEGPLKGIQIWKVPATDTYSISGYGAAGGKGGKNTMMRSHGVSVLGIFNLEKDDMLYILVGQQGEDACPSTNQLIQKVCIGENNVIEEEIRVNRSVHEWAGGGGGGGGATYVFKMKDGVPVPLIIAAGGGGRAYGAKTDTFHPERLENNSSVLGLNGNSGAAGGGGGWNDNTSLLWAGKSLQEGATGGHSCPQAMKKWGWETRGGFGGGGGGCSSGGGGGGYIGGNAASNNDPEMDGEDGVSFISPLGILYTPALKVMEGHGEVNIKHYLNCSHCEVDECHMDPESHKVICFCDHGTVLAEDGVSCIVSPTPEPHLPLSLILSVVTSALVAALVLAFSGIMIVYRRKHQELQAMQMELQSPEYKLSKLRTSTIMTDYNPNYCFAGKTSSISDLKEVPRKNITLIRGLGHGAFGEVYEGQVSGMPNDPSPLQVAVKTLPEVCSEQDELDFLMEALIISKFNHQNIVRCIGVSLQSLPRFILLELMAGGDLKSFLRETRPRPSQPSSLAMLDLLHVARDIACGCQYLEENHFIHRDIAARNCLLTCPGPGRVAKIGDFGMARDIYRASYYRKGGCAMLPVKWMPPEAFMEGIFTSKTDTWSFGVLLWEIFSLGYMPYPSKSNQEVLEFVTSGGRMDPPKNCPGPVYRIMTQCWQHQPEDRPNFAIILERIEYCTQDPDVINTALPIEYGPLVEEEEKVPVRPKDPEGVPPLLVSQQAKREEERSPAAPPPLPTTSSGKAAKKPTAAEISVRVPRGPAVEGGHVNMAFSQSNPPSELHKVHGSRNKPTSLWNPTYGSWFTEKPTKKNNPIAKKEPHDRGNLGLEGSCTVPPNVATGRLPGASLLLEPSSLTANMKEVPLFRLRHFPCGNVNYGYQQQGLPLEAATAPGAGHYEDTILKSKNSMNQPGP
Chain of TYK2 (P29597 whole entry): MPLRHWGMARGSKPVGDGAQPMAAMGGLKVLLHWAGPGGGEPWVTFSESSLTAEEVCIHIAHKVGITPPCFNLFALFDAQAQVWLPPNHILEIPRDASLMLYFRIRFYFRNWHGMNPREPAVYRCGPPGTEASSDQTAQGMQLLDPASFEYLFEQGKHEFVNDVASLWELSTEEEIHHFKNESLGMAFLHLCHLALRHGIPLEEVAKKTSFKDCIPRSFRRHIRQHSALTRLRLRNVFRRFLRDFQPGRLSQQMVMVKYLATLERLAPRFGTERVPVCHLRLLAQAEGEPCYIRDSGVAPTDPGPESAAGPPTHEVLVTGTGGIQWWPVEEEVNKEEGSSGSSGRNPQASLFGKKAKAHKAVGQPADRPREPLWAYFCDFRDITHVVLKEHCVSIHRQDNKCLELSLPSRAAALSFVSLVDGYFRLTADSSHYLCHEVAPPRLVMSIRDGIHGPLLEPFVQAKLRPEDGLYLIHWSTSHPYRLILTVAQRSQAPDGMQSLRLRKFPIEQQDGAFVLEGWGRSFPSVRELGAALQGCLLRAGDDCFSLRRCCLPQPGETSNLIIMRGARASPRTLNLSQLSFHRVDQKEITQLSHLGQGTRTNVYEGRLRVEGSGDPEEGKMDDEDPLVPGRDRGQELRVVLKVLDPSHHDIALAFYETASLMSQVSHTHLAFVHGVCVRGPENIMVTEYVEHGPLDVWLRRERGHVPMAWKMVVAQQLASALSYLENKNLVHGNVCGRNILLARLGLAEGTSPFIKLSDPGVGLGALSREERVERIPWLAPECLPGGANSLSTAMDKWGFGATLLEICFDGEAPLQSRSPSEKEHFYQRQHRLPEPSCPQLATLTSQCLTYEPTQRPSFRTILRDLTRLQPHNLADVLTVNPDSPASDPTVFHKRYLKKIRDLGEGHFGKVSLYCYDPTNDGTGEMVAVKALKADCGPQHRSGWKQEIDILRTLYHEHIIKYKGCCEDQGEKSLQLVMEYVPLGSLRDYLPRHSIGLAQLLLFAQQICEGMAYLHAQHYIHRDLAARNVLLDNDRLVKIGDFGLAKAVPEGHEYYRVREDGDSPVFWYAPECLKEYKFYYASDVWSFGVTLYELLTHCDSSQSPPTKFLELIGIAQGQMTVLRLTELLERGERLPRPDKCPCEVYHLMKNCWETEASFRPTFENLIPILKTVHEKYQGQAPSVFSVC

| SMILES | IC50 [1] | IC50 [2] | IC50 [3] | IC50 (TYK2) | ALK % of inhibition at a concentration of 500 nM or 1 mM [4] |
| --- | --- | --- | --- | --- | --- |
| N#Cc1ccccc1S(=O)(=O)N1CCC(CC(=O)Nc2ccc3cc2CCc2cccc(c2)Nc2ncc(Cl)c(n2)N3)CC1 [Example A208, N-[6-Chloro-2,4,8,22-tetraazatetracyclo[14.3.1.1(3,7).1(9,13)]docosa-1(20),3(22),4,6,9(21),10,12,16,18-nonaen-12-yl]-2-{1-[(2-cyanophenyl)sulfonyl]piperidin-4-yl}acetamide trifluoroacetate] | 1.6 nM | 41 nM | > 200 nM | 150 nM | 17% |
| N#Cc1ccc(S(=O)(=O)N2CCC(CC(=O)Nc3ccc4cc3CCc3cccc(c3)Nc3ncc(Cl)c(n3)N4)CC2)cc1 [Example A209, N-[6-Chloro-2,4,8,22-tetraazatetracyclo[14.3.1.1(3,7).1(9,13)]docosa-1(20),3(22),4,6,9(21),10,12,16,18-nonaen-12-yl]-2-{1-[(4-cyanophenyl)sulfonyl]piperidin-4-yl}acetamide trifluoroacetate] | 60 nM | 120 nM | > 200 nM | > 200 nM | 19% |
| Cc1oncc1S(=O)(=O)N1CCC(CC(=O)Nc2ccc3cc2CCc2cccc(c2)Nc2ncc(Cl)c(n2)N3)CC1 [Example A210, N-[6-Chloro-2,4,8,22-tetraazatetracyclo[14.3.1.1(3,7).1(9,13)]docosa-1(20),3(22),4,6,9(21),10,12,16,18-nonaen-12-yl]-2-{1-[(5-methylisoxazol-4-yl)sulfonyl]piperidin-4-yl}acetamide trifluoroacetate] | 35 nM | 90 nM | > 200 nM | > 200 nM | 20% |
| O=C(CC1CCN(S(=O)(=O)c2ccco2)CC1)Nc1ccc2cc1CCc1cccc(c1)Nc1ncc(Cl)c(n1)N2 [Example A211, N-[6-Chloro-2,4,8,22-tetraazatetracyclo[14.3.1.1(3,7).1(9,13)]docosa-1(20),3(22),4,6,9(21),10,12,16,18-nonaen-12-yl]-2-[1-(2-furylsulfonyl)piperidin-4-yl]acetamide trifluoroacetate] | 12 nM | 66 nM | > 200 nM | 150 nM | 37% |
| O=C(CC1CCN(S(=O)(=O)c2cccnc2)CC1)Nc1ccc2cc1CCc1cccc(c1)Nc1ncc(Cl)c(n1)N2 [Example A212, N-[6-Chloro-2,4,8,22-tetraazatetracyclo[14.3.1.1(3,7).1(9,13)]docosa-1(20),3(22),4,6,9(21),10,12,16,18-nonaen-12-yl]-2-[1-(pyridin-3-ylsulfonyl)piperidin-4-yl]acetamide bis(trifluoroacetate)] | 1.3 nM | 8.6 nM | > 200 nM | 85 nM | 45% |
| O=C(CC1CCN(C(=O)c2cnoc2C2CC2)CC1)Nc1ccc2cc1CCc1cncc(c1)Nc1ncc(Cl)c(n1)N2 [Example A213, N-[6-Chloro-2,4,8,18,22-pentaazatetracyclo[14.3.1.1(3,7).1(9,13)]docosa-1(20),3(22),4,6,9(21),10,12,16,18-nonaen-12-yl]-2-{1-[(5-cyclopropylisoxazol-4-yl)carbonyl]piperidin-4-yl}acetamide bis(trifluoroacetate)] | 58 nM | > 200 nM | > 200 nM | > 200 nM | 27% |
| CC(C)c1cc(C(=O)N2CCC(CC(=O)Nc3ccc4cc3CCc3cncc(c3)Nc3ncc(Cl)c(n3)N4)CC2)no1 [Example A214, N-[6-Chloro-2,4,8,18,22-pentaazatetracyclo[14.3.1.1(3,7).1(9,13)]docosa-1(20),3(22),4,6,9(21),10,12,16,18-nonaen-12-yl]-2-{1-[(5-isopropylisoxazol-3-yl)carbonyl]piperidin-4-yl}acetamide bis(trifluoroacetate)] | 50 nM | > 200 nM | > 200 nM | > 200 nM | 15% |
| COc1cc(C(=O)N2CCC(CC(=O)Nc3ccc4cc3CCc3cncc(c3)Nc3ncc(Cl)c(n3)N4)CC2)on1 [Example A215, N-[6-Chloro-2,4,8,18,22-pentaazatetracyclo[14.3.1.1(3,7).1(9,13)]docosa-1(20),3(22),4,6,9(21),10,12,16,18-nonaen-12-yl]-2-{1-[(3-methoxyisoxazol-5-yl)carbonyl]piperidin-4-yl}acetamide bis(trifluoroacetate)] | 16 nM | 185 nM | > 200 nM | 160 nM | 32% |
| Cc1ncsc1C(=O)N1CCC(CC(=O)Nc2ccc3cc2CCc2cncc(c2)Nc2ncc(Cl)c(n2)N3)CC1 [Example A216, N-[6-Chloro-2,4,8,18,22-pentaazatetracyclo[14.3.1.1(3,7).1(9,13)]docosa-1(20),3(22),4,6,9(21),10,12,16,18-nonaen-12-yl]-2-{1-[(4-methyl-1,3-thiazol-5-yl)carbonyl]piperidin-4-yl}acetamide bis(trifluoroacetate)] | 80 nM | > 200 nM | > 200 nM | > 200 nM | 29% |

More lines, now with the values ahead:

| IC50 [1] | IC50 [2] | IC50 [3] | IC50 (TYK2) | ALK % of inhibition at a concentration of 500 nM or 1 mM [4] | SMILES |
| --- | --- | --- | --- | --- | --- |
| 4.2 nM | 68 nM | > 200 nM | 55 nM | 23% | Nc1nc(C(=O)N2CCC(CC(=O)Nc3ccc4cc3CCc3cncc(c3)Nc3ncc(Cl)c(n3)N4)CC2)cs1 [Example A217, 2-{1-[(2-Amino-1,3-thiazol-4-yl)carbonyl]piperidin-4-yl}-N-[6-chloro-2,4,8,18,22-pentaazatetracyclo[14.3.1.1(3,7).1(9,13)]docosa-1(20),3(22),4,6,9(21),10,12,16,18-nonaen-12-yl]acetamide tris(trifluoroacetate)] |
| 74 nM | > 200 nM | > 200 nM | > 200 nM | 26% | CC(C)c1oncc1C(=O)N1CCC(CC(=O)Nc2ccc3cc2CCc2cncc(c2)Nc2ncc(Cl)c(n2)N3)CC1 [Example A218, N-[6-Chloro-2,4,8,18,22-pentaazatetracyclo[14.3.1.1(3,7).1(9,13)]docosa-1(20),3(22),4,6,9(21),10,12,16,18-nonaen-12-yl]-2-{1-[(5-isopropylisoxazol-4-yl)carbonyl]piperidin-4-yl}acetamide bis(trifluoroacetate)] |
| 12 nM | 90 nM | > 200 nM | 180 nM | 20% | O=C(CC1CCN(c2ccccc2)CC1)Nc1ccc2cc1CCc1cncc(c1)Nc1ncc(Cl)c(n1)N2 [Example A219, N-[6-Chloro-2,4,8,18,22-pentaazatetracyclo[14.3.1.1(3,7).1(9,13)]docosa-1(20),3(22),4,6,9(21),10,12,16,18-nonaen-12-yl]-2-(1-phenylpiperidin-4-yl)acetamide tris(trifluoroacetate)] |
| 13 nM | 180 nM | > 200 nM | 190 nM | 18% | N#Cc1ccccc1N1CCC(CC(=O)Nc2ccc3cc2CCc2cncc(c2)Nc2ncc(Cl)c(n2)N3)CC1 [Example A220, N-[6-Chloro-2,4,8,18,22-pentaazatetracyclo[14.3.1.1(3,7).1(9,13)]docosa-1(20),3(22),4,6,9(21),10,12,16,18-nonaen-12-yl]-2-[1-(2-cyanophenyl)piperidin-4-yl]acetamide tris(trifluoroacetate)] |
| 44 nM | > 200 nM | > 200 nM | > 200 nM | 22% | N#Cc1ccc(N2CCC(CC(=O)Nc3ccc4cc3CCc3cncc(c3)Nc3ncc(Cl)c(n3)N4)CC2)cc1 [Example A221, N-[6-Chloro-2,4,8,18,22-pentaazatetracyclo[14.3.1.1(3,7).1(9,13)]docosa-1(20),3(22),4,6,9(21),10,12,16,18-nonaen-12-yl]-2-[1-(4-cyanophenyl)piperidin-4-yl]acetamide tris(trifluoroacetate)] |
| 3.2 nM | > 200 nM | > 200 nM | > 200 nM | 5.6% | N#Cc1c(Cl)cccc1N1CCC(CC(=O)Nc2ccc3cc2CCc2cncc(c2)Nc2ncc(Cl)c(n2)N3)CC1 [Example A222, 2-[1-(3-Chloro-2-cyanophenyl)piperidin-4-yl]-N-[6-chloro-2,4,8,18,22-pentaazatetracyclo[14.3.1.1(3,7).1(9,13)]docosa-1(20),3(22),4,6,9(21),10,12,16,18-nonaen-12-yl]acetamide tris(trifluoroacetate)] |
